Assays:
[1] = test system: CD34+CD45RA− cord blood cells; assay: Ex vivo expansion of cord blood-derived CD34+ and CD34+CD45RA− cells (FIG. 5B, 5C); assay type: cell-based, human; conditions: cord blood
[2] = test system: CD34+ mobilized peripheral blood cells; assay: FACS analysis of differentiation of CD34+ mobilized peripheral blood cells (FIG. 4A); assay type: cell-based, human; conditions: 7 day expansion, optimal levels, vs DMSO control
Description: FIG. 4A illustrates the impact of Compound 1 on mobilized peripheral blood cell differentiation. Following a 7 day expansion, a relatively pure (>85% CD34^+) population of mobilized peripheral blood was exposed to control the (DMSO) or Compound 1 or SR1 or Compound 1+SR1.

[3] = test system: CD34+ mPB cells transplanted in NSG mice; assay: Engraftment of cultured CD34+ mPB cells in NSG mice; conditions: cells cultured ten days; outcome of 50,000 and 500,000 cells; 13 week post-transplantation
[4] = test system: CD34+ CB cells transplanted in NSG mice; assay: Engraftment of cultured CD34+ cord blood cells in NSG mice (FIG. 7); conditions: outcome of 5,000 CD34+ CB cells, 7 days culture; 8-weeks post transplantation (FIG. 7A)
Description: These experiments were done in short term cultures i.e. 7 days.

[5] = test system: Mobilized peripheral blood CD34(+) cells; assay: Growth factor (Flt3, SCF, TPO) requirement / mitogen test (FIG. 3); assay type: cell-based, human
Method: FIG. 3: Flt3, SCF, and TPO are required for compound 1 mediated stem cell expansion. Mobilized peripheral blood CD34(+) cells were cultured for 7 days in the presence or absence of the growth factors (Flt3+SCF+TPO).
This indicate that akin to SR1, Compound 1's effect on maintenance of primitive HSC phenotype ex vivo is not due to a mitogenic effect on this population but rather on the prevention of cell differentiation.

[6] = test system: CD34+ mobilized peripheral blood (mPB) cells; assay: Ex vivo expansion of mobilized peripheral blood-derived CD34+ and CD34+CD45RA− cells (FIG. 5A); assay type: cell-based, human; conditions: 12-days culture
Description: FIG. 5: A) Compound 1 expands mobilized peripheral blood-derived CD34+ and CD34+CD45RA− cell populations ex vivo. […] This observation was enhanced with the co-treatment with SR1.
[…]. The level of expansion is the same whether cultures are initiated with Compound 1, SR1, Compound 1+SR1, or control DMSO. […] […].

CD34+CD45RA− cells = assay: Dose-response assay: 50% increase in CD34+CD45RA− cell count vs vehicle (EC50); assay type: cell-based, human; conditions: concentration giving 50% increase in CD34+CD45RA− cell count vs vehicle (DMSO), dose-response 1 nM to 5000 nM; for EC50: Homo sapiens, read-out: Biological data (EC50)*
Method: The following biological assays were used to assess the effect of the compounds of the invention on hematopoietic stem cell expansion. Culture medium: The culture medium used consisted of serum-free medium supplemented with the following recombinant cytokines: interleukin-6, thrombopoietin, Flt-3 ligand, and stem cell factor, each at a final concentration of 100 ng/ml, in the presence of vehicle (DMSO), positive control (SR1), or compound of the invention or a combination of compounds.

CC(C)n1cnc2c(NCCc3ccc(O)cc3)nc(-c3csc4ccccc34)nc21 [SR1, StemRegenin1, reference compound]
expansion of CD34+CD45RA− cells ([1]; 12-days): less than 20 fold | total cell expansion vs DMSO (control) ([1]; twelve days): the same | loss of CD34 cell surface expression [2]: partly abrogated | human hematopoietic engraftment (human CD45+ cells in BM) [3]: consistently better than DMSO | human CD45+ engraftment / reconstitution activity [4]: human CD45+ engraftment | induction of cell proliferation in the absence of growth factors (Flt3, TPO, SCF) [5]: not able to induce cell proliferation | total cell count increase above the input [6]: about 20 fold

COC(=O)c1ccc2c(c1)[nH]c1nc(Cc3ccccc3)nc(NCCCN(C)CCCNc3nc(Cc4ccccc4)nc4[nH]c5cc(C(=O)OC)ccc5c34)c12 [Compound 51, dimethyl 4,4′-(((methylazanediyl)bis(propane-3,1-diyl))bis(azanediyl))bis(2-benzyl-9H-pyrimido[4,5-b]indole-7-carboxylate)]
EC50 (CD34+CD45RA− cells): < 100 nM

COC(=O)c1ccc2c(c1)[nH]c1nc(Cc3cccc(C4(C(F)(F)F)N=N4)c3)nc(NCCCN(C)CCCNC(=O)CCCC[C@@H]3SC[C@@H]4NC(=O)N[C@@H]43)c12 [Compound 53, methyl 4-((3-(methyl(3-(5-((3aS,4S,6aR)-2-oxohexahydro-1H-thieno[3,4-d]imidazol-4-yl)pentanamido)propyl)amino)propyl)amino)-2-(3-(3-(trifluoromethyl)-3H-diazirin-3-yl)benzyl)-9H-pyrimido[4,5-b]indole-7-carboxylate]
Biological data (EC50)* (CD34+CD45RA− cells): F (F=compound showed >1.3 fold expansion)

COC(=O)c1ccc2c(c1)[nH]c1nc(Cc3cccc(C(O)C(F)(F)F)c3)nc(NCCCN3CCCCC3)c12 (stereo not shown) [Compound 34, methyl 4-((3-(piperidin-1-yl)propyl)amino)-2-(3-(2,2,2-trifluoro-1-hydroxyethyl)benzyl)-9H-pyrimido[4,5-b]indole-7-carboxylate]
EC50 (CD34+CD45RA− cells): < 100 nM

Reference: US9409906B2, “Pyrimido[4,5-B]indole derivatives and use thereof in the expansion of hematopoietic stem cells” (UNIVERSITÉ DE MONTRÉAL, priority 2012, dated 2016)
